Source: patent US6472391B2, “Nitrogen-containing heterocyclic compounds” (Millennium Pharmaceuticals, Inc., priority 1996, dated 2002)

Columns and labels:
Wistar-Kyoto rats = test: Mesangial proliferative glomerulonephritis model (anti-Thy-1.1 antibody OX-7); assay type: in vivo, rat; conditions: per glomerulus, 7th day after OX-7; twice a day for 7 days; normal 1.8 +/− 0.3, solvent-administered 8.7 +/− 0.4
Experimental: Test Example 5 Activity on a Mesangial Proliferative Glomerulonephritis Model
Anti-rat Thy-1.1 monoclonal antibody OX-7 (Cedarlane) was administered to male Wistar-Kyoto rats (Charles River Japan, 160 g, 6 animals/group) in an amount of 1.0 mg/kg by intravenous administration through the tail vein. A test compound was suspended in a 0.5% solution of methylcellulose and the resulting suspension was administered to each of the rats twice a day for a period of 7 days starting on the day before the administration of OX-7. On the 7th day after the OX-7 administration, when mesangial cell growth and extracellular matrix hypertrophy became prominent, the left kidney of each rat was extirpated, fixed with 20% buffered formalin for 6 hours and wrapped in paraffin, followed by slicing. The obtained pieces were subjected to immune tissue staining using antibody Pd10 (DAKO) against a proliferative cell nuclear antigen. After comparative staining with Methyl Green staining solution using diaminobenzidine as a color developer, the paraffin sections were enclosed. Half of the glomeruli in a kidney piece were observed and the number of the cells in one glomerulus which were positive to the proliferative cell nuclear antigen was calculated. The test for the significance of difference was carried out by the Wilcoxon test.

COc1cc2ncnc(N3CCN(C(=S)NCc4ccc5c(c4)OCO5)CC3)c2cc1OC [Compound 208, 4-(6,7-dimethoxy-4-quinazolinyl)-N-(3,4-methylenedioxybenzyl)-1-piperazinethiocarboxamide]
Number of cells which are positive to intranuclear antigen of proliferative cells (Wistar-Kyoto rats): 6.1 +/− 0.9
melting point: 113 to 114 °C
